Here are results for three compounds from patent publication EP0769956B1, “USE OF A GnRH ANTAGONIST FOR THE PREPARATION OF A MEDICAMENT FOR THE TREATMENT OF GONADAL-STEROID CONDITIONS” (THE MEDICAL COLLEGE OF HAMPTON ROADS, priority 1994, dated 2000).

“And” between values parts separate entries of the source, which are not always exact repeats. Equal values may be shown once. A value given as a limit tells only on which side of the number the result lay.

One data set can be described thus: in vivo. Details: species or system cynomolgus monkeys. The settings on record: cynomolgus monkey, sc. The procedure:
Eleven adult female cynomolgus monkeys having regular and presumably ovulatory menstrual cycles were entered into the study. Body weights were determined monthly. Menstrual bleeding and spotting were recorded daily by visual inspection of external genitalia and insertion of vaginal swabs using a saline moistened cotton-tipped applicator, respectively. Blood samples were collected from femoral vessels and the serum stored for subsequent RIA of estradiol and progesterone. Coefficients of variation for these assays were: 7.4 and 11.1; and 7.0 and 10.9%, respectively, for within and between assays. The GnRH antagonist ([…]) used was Nal-Glu: [[…]. The design was progressive in that all eleven monkeys initially received […] at 0.05 mg/kg starting on day 2 of the menstrual cycle and continuing daily until results of the progesterone challenge test and estradiol levels in circulation indicated the need to raise the dose. Concurrently, a pair of progesterone-loaded silastic implants were inserted sc during […] treatment from day 20 and 30, and then removed. If withdrawal menses occurred during the next week, the individual Nal-Glu dose was raised to 0.1 mg/kg daily. On […] treatment day 50, the 10 day progesterone challenge test was repeated for all monkeys. […] Again, amenorrhea or withdrawal menses was recorded. […]

In the next data set the test system is pituitary-ovarian axis. The settings on record: sufficient single dose; monkeys; cited from earlier work.
The subject of data set [1] is ovarian estrogen secretion. Briefly: Part I dose-finding study: RIA of serum estradiol during 14 days of daily im treatment. It is filed as in vivo, cynomolgus monkeys. The settings on record: 0.1 mg/kg im daily; some individual primates, predominately. The procedure: (§1) Eleven adult female cynomolgus monkeys having regular and presumably ovulatory menstrual cycles were entered into the study. Body weights were determined monthly. Menstrual bleeding and spotting were recorded daily by visual inspection of external genitalia and insertion of vaginal swabs using a saline moistened cotton-tipped applicator, respectively. Blood samples were collected from femoral vessels and the serum stored for subsequent RIA of estradiol and progesterone. Coefficients of variation for these assays were: 7.4 and 11.1; and 7.0 and 10.9%, respectively, for within and between assays. The GnRH antagonist (GnRHant) used was Nal-Glu: [Ac-D2NAL, 4ClDPhe^2, D3Pal^3, Arg^5, DGlu^6(AA), DAla^10]-GnRH.
In Part I of the study, the object was to perform a brief dose-finding study that indicated residual serum estradiol levels in intact primates previously illustrating regular menstrual cycles. Specifically sought was an approximation of the minimal daily im dose of Nal-Glu sufficient to suppress circulating estradiol levels into the target range: less than 45 pg/ml but more than 35 pg/ml. Beginning on day 2 of the menstrual cycle, Nal-Glu GnRHant, suspended in sesame oil, was administered between 9 and 10 am in doses of 0.1 (n = 5) and 0.3 mg/kg (n = 6) for 14 days. Femoral blood was obtained daily under ketamine anesthesia. […]

For data set [2], the system named is estrogen-induced endometrial proliferation. Briefly: Progesterone challenge test (withdrawal bleeding versus amenorrhea, spotting). The data set is classed as in vivo, cynomolgus monkeys. The protocol:
as §1
(§2) After a 60 day wash-out interval, the Part II experimental design had two objectives: 1) attempt to titer the GnRHant dose to individual monkeys so that residual ovarian estrogen secretion was often within the target range (estradiol at 35 to 45 pg/ml) in as many of the blood samples as possible; and 2) perform periodic progesterone challenge tests wherein withdrawal bleeding indicates significant estrogen-induced endometrial proliferation (i.e. excessive estrogenic influence) versus amenorrhea (the absence of progesterone withdrawal bleeding) as an indicator that the GnRHant dose and, in turn, the tonic ovarian estrogen production was indicative of a controlled estrogenic milieu.
(§3) The design was progressive in that all eleven monkeys initially received Nal-Glu GnRHant at 0.05 mg/kg starting on day 2 of the menstrual cycle and continuing daily until results of the progesterone challenge test and estradiol levels in circulation indicated the need to raise the dose. Concurrently, a pair of progesterone-loaded silastic implants were inserted sc during GnRHant treatment from day 20 and 30, and then removed. If withdrawal menses occurred during the next week, the individual Nal-Glu dose was raised to 0.1 mg/kg daily. On GnRHant treatment day 50, the 10 day progesterone challenge test was repeated for all monkeys. Those primates who were amenorrheic remained on this dose of Nal-Glu; any "bleeders" were to be shifted to a higher dose of GnRHant at 0.2 mg/kg daily through treatment day 90, with the final progesterone challenge test given to all monkeys on days 80 to 90. Again, amenorrhea or withdrawal menses was recorded.
For definition, withdrawal bleeding was scored when blood was on the external genitalia for two or more consecutive days within the week following progesterone withdrawal. Spotting was scored when blood was evident only by coloration of the cotton swab upon insertion into the vagina.

Data set [3] concerns ovarian estrogen secretion. The data set is described as follows: Part II individualized dose titering: RIA of serum estradiol every 10 days. The data set is classed as in vivo, cynomolgus monkeys. The protocol: as §1, §2, §3
Femoral blood samples were collected every 10 days through the study for RIA of estradiol and progesterone.

`CC(=O)[C@H]1CC[C@H]2[C@@H]3CCC4=CC(=O)CC[C@]4(C)[C@H]3CC[C@]12C` [progesterone] came in with a concentration at 240 h in the data set “in vivo” of 6.4 ± 0.6 ng/mL.

Take “D-Ac-D-2-Nal^1-DpClPhe^2-D-3-Pal^3-Ser^4-NiLys^5-D-NicLys^6-Leu^7-ILys^8-Pro^9-D-Ala^10 [antide]”: the “effect on the pituitary-ovarian axis” value in the data set on pituitary-ovarian axis is “immediate and sustained inhibition of the pituitary-ovarian axis”.

“[Ac-D2NAL, 4ClDPhe^2, D3Pal^3, Arg^5, DGlu^6(AA), DAla^10]-GnRH [Nal-Glu]” yielded a serum estradiols in data set [1] of less than 25 pg/mL. Besides, the “monkeys achieving withdrawal amenorrhea” value in data set [2] (second progesterone challenge test, only the monkeys raised to 0.1 mg/kg im daily) is 8 of 9. Also, the “Incidence of Spotting” value in data set [2] (week of progesterone withdrawal days 31-37) was 13 days; in data set [2] (week of progesterone withdrawal days 61-67) it was 12 days; in data set [2] (week of progesterone withdrawal days 91-97) it was 0 days. Moreover, the “Amenorrhea Achieved” value in data set [2] (week of progesterone withdrawal days 31-37, first challenge, all eleven monkeys on 0.05 mg/kg im daily) is “two and 2/11”; in data set [2] (week of progesterone withdrawal days 61-67, second challenge, 0.05 or 0.1 mg/kg im daily), 10/11; in data set [2] (week of progesterone withdrawal days 91-97, third challenge, 0.05, 0.1 or 0.2 mg/kg im daily) it was “eleven and 11/11”. In data set [3] (0.05 mg/kg im daily, the two primates with withdrawal amenorrhea, target zone 35 to 45 pg/ml), the “mean serum estradiol levels” value was “in or near the target zone”. Moreover, in data set [3] (0.2 mg/kg im daily, the lone resistant monkey), the estradiol suppression entry is reported as “under 20 pg/ml”. Moreover, the “mean circulating estradiol levels” value in data set [3] (at third progesterone challenge test, all females except the one given 0.2 mg/kg im daily, target zone 35 to 45 pg/ml) is listed as “in or near the target zone”. In addition, in data set [3] (dose raised to 0.1 mg/kg im daily from day 31, 8 monkeys), the “mean serum estradiol concentrations” value is “approximately 40 pg/ml”.
